Test results taken from patent publication US4927837A, “Derivatives of 3-piperidine carbaldehyde oxime and their use as medicaments” (Roussel Uclaf, priority 1987, dated 1990).
Like-named read-outs stand apart in the source and are kept apart here.

Columns and labels:
in vivo = details: mouse, male mice, oral route, mortality noted for 7 days
Protocol: The test is carried out on male mice (CD1 Charles Rivers) of 22 to 24 g, which have gone without food for 16 hours.

[1] = test system: isolated ileum of guinea pigs; test: Test on the isolated ileum of guinea pigs (agonistic activity); details: Cavia porcellus; isolated guinea pig ileum, contraction, Tyrode's solution, 37° C.; read-out: pD2 (negative logarithm of the dose which produces 50% of the maximum effect) (converted)
Protocol: Fragments of the ileum of guinea pigs killed by decapitation are removed. The isolated ileum is placed in 10 cm^3 of Tyrode's solution at 37° C. and aerated by a mixture of oxygen (95%) and carbon dioxide gas (5%). The contractions due to the products are recorded with a detector linked to a polygraph. The products under test are added at concentrations between 1.10^-4 M and 1.10^-8 M/1.
The products showing a contracting effect are tested vis a vis atropine and hexamethonium in order to establish whether the activity is of "muscarine" or "nicotine" type.
The possible antagonistic activity of the products is tested vis a vis acetylcholine.
The agonistic activity is expressed in pD2 (negative logarithm of the dose which produces 50% of the maximum effect.)

[2] = Diarrheic activity in mice, oral route; details: mouse, in vivo, male mice, read-out: DE50 (dose which causes diarrhea in 50% of the animals)
Protocol: The test is carried out on male mice (CD1 Charles Rivers) weighing 25 to 30 g, which have gone without food for 6 hours. The product, dissolved at 5% in methocel, is administered by oral route, using a probang.
The control animals receive only the excipient.
After treatment, the animals are put separately into cages, the bottoms of which are covered with blotting paper, and are put under observation for 30, 60, 120 and 180 minutes.
The absorbent sheets of paper are changed after each observation.
The consistency of the faeces is evaluated according to the Randall and Baruth method (Arch. Int. Pharmacodyn. 220, 94, 1976), according to the scale of the following values:
1: slightly moist faeces with or without halo of humidity,
2: slightly moist faeces with presence of well-defined circle of humidity,
3: moist faeces with presence of a large circle of humidity,
4: faeces without consistency with presence of a very large circle of humidity.
For each product, the dose which causes diarrhea in 50% of the animals is noted according to the method of Miller and Tainter (Proc. Soc. Exp. Biol. Med., 57, 261, 1944).

[3] = Hypothermic activity in mice; type: in vivo; details: Mus musculus, male mice, read-out: Effective dose (-1° C.)
Protocol: (§1) The test is carried out on male mice (CD1 Charles Rivers) weighing 25 to 30 g, which have gone without food for 6 hours.
The body temperature is noted using a thermocouple placed about 1.5 cm inside the rectum, and connected to an electric temperature recorder.
The products are administered by oral or subcutaneous route and the temperatures are noted at instant 0 and at 30 minutes, 1 hour, 2 hours and 21/2 hours after treatment.
The degree of hypothermia is evaluated as the difference between the treated animals and the control animals, and the dose necessary for reducing the body temperature by 1° C. is determined.

[4] = Variation in body temperature (duration of action); type: in vivo, mice
Protocol: as §1
The body temperature is noted using a thermocouple placed about 1.5 cm inside the rectum, and connected to an electric temperature recorder. […]
The duration of action of the products is determined using doses capable of reducing the temperature by 1° to 1.5° C.

[5] = test system: patients who have a memory deficiency; details: intravenous route; cited from earlier work
[6] = test system: central cholinergic system; details: cited from earlier work
[7] = 2 mg/kg, sc, 30 min, **p < 0.01
[8] = 2 mg/kg, sc, 60 min, **p < 0.01

Work on `CON=CC1CCCNC1` (stereo not drawn) [Example 2, 3-piperidine carbaldehyde O-methyloxime] yielded an LD50 at 168 h (in vivo) of 125 mg/kg, an EC50 [1] of 0.891 µM and an ED50 [2] of 3 mg/kg. The ED (-1 C) ([3]; O. R. (oral route)) was 1.2 mg/kg, the ED (-1 C) ([3]; SC. R. (subcutaneous route)) was 1.2 mg/kg and the “Variation in body temperature” value ([4]; 2 mg/kg, os, 0 min) was “+0.1 °C”. For the same compound, the “Variation in body temperature” value ([4]; 2 mg/kg, os, 30 min, **p < 0.01) was -1.7 °C, the “Variation in body temperature” value ([4]; 2 mg/kg, os, 60 min, **p < 0.01) was -1.4 °C and the “Variation in body temperature” value ([4]; 2 mg/kg, os, 120 min) was “+0.1 °C”. For the same compound, the “Variation in body temperature” value ([4]; 2 mg/kg, os, 180 min) was “+0.1 °C”, the “Variation in body temperature” value [4, 7] was -1.7 °C and the “Variation in body temperature” value [4, 8] was -1.5 °C. For the same compound, the “Variation in body temperature” value ([4]; 2 mg/kg, sc, 180 min) was “+0.1 °C”.
With `COC(=O)C1=CCCN(C)C1` [Arecoline, HBr, reference compound] the “Variation in body temperature” value ([4]; 3.5 mg/kg, sc, 0 min) was -0.1 °C, the “Variation in body temperature” value ([4]; 3.5 mg/kg, sc, 30 min, **p < 0.01) was -1.5 °C and the “Variation in body temperature” value ([4]; 3.5 mg/kg, sc, 60 min) was -0.1 °C. For the same compound, the “Variation in body temperature” value ([4]; 3.5 mg/kg, sc, 120 min) was “+0.2 °C” and the “Variation in body temperature” value ([4]; 3.5 mg/kg, sc, 180 min) was “+0.2 °C”.
For `CON=CC1CCCN(OC(=O)c2ccccc2)C1` (stereo not drawn) [Example 7, 1-benzoyloxy-3-piperidine carbaldehyde (O-methyloxime)], the LD50 at 168 h (in vivo) was > 500 mg/kg, the EC50 [1] was > 100 µM and the ED50 [2] was 10 mg/kg. For the same compound, the ED (-1 C) ([3]; O. R. (oral route)) was 4 mg/kg, the ED (-1 C) ([3]; SC. R. (subcutaneous route)) was 4 mg/kg and the “Variation in body temperature” value ([4]; 5 mg/kg, os, 0 min) was “+0.1 °C”. For the same compound, the “Variation in body temperature” value ([4]; 5 mg/kg, os, 30 min, **p < 0.01) was -1.2 °C, the “Variation in body temperature” value ([4]; 5 mg/kg, os, 60 min, **p < 0.01) was -1.0 °C and the “Variation in body temperature” value ([4]; 5 mg/kg, os, 120 min) was “+0.1 °C”. The “Variation in body temperature” value ([4]; 5 mg/kg, os, 180 min) was “+0.1 °C”, the “Variation in body temperature” value ([4]; 5 mg/kg, sc, 0 min) was “+0.1 °C” and the “Variation in body temperature” value ([4]; 5 mg/kg, sc, 30 min, **p < 0.01) was -1.2 °C. The “Variation in body temperature” value ([4]; 5 mg/kg, sc, 60 min, **p < 0.01) was -1.1 °C and the “Variation in body temperature” value ([4]; 5 mg/kg, sc, 180 min) was “+0.1 °C”.
With `C#CCON=CC1CCCNC1` (stereo not drawn) [Example 6, 3-piperidine carbaldehyde O-(2-propynyl) oxime] the LD50 at 168 h (in vivo) was 100 mg/kg, the EC50 [1] was 4.47 µM and the ED50 [2] was 12 mg/kg. For the same compound, the ED (-1 C) ([3]; O. R. (oral route)) was 7 mg/kg, the ED (-1 C) ([3]; SC. R. (subcutaneous route)) was 7 mg/kg and the “Variation in body temperature” value ([4]; 12.5 mg/kg, os, 0 min) was “+0.1 °C”. The “Variation in body temperature” value ([4]; 12.5 mg/kg, os, 30 min, **p < 0.01) was -1.2 °C, the “Variation in body temperature” value ([4]; 12.5 mg/kg, os, 60 min, **p < 0.01) was -1.4 °C and the “Variation in body temperature” value ([4]; 12.5 mg/kg, os, 120 min) was -0.1 °C. The “Variation in body temperature” value ([4]; 12.5 mg/kg, os, 180 min) was “+0.1 °C”, the “Variation in body temperature” value ([4]; 12.5 mg/kg, sc, 0 min) was -0.1 °C and the “Variation in body temperature” value ([4]; 12.5 mg/kg, sc, 30 min, **p < 0.01) was -1.6 °C. The “Variation in body temperature” value ([4]; 12.5 mg/kg, sc, 60 min, **p < 0.01) was -1.5 °C, the “Variation in body temperature” value ([4]; 12.5 mg/kg, sc, 120 min) was -0.2 °C and the “Variation in body temperature” value ([4]; 12.5 mg/kg, sc, 180 min) was “+0.1 °C”.
In the case of `COC(=O)C1=CCCN(C)C1` [Arecoline, reference compound], the EC50 [1] is reported as 0.126 µM, the ED50 [2] is reported as 35 mg/kg and the ED (-1 C) ([3]; O. R. (oral route)) is reported as 194 mg/kg. For the same compound, the ED (-1 C) ([3]; SC. R. (subcutaneous route)) was 3 mg/kg, the “effect on patients who have a memory deficiency” value [5] was “positive effect” and the period of action ([6]; in vivo) was “short-lasting period of action”. The “activity by oral route” value ([6]; oral route) was “very weak activity by oral route”.
In the case of `CON=CC1CCCN(O)C1` (stereo not drawn) [Example 8, 1-hydroxy-3-piperidine carbaldehyde (O-methyloxime)], the LD50 at 168 h (in vivo) is reported as 200 mg/kg, the EC50 [1] is reported as 11.2 µM and the ED50 [2] is reported as 4 mg/kg. For the same compound, the ED (-1 C) ([3]; O. R. (oral route)) was 2 mg/kg, the ED (-1 C) ([3]; SC. R. (subcutaneous route)) was 1.6 mg/kg and the “Variation in body temperature” value ([4]; 2 mg/kg, sc, 0 min) was “+0.1 °C”. For the same compound, the “Variation in body temperature” value [4, 7] was -1.2 °C, the “Variation in body temperature” value [4, 8] was -1.0 °C and the “Variation in body temperature” value ([4]; 2.5 mg/kg, os, 0 min) was “+0.1 °C”. The “Variation in body temperature” value ([4]; 2.5 mg/kg, os, 30 min, **p < 0.01) was -1.2 °C, the “Variation in body temperature” value ([4]; 2.5 mg/kg, os, 60 min, **p < 0.01) was -1.0 °C and the “Variation in body temperature” value ([4]; 2.5 mg/kg, os, 180 min) was “+0.2 °C”.
